Source: patent US4734493A, “Novel anthracycline antibiotics” (Sanraku, Incorporated, priority 1985, dated 1988)
≈ marks a conversion by molar mass, not a printed value. Read-outs that look alike come from different tables or passages of the source.

Legend:
[1] = system: mouse leukemia L1210 culture cell; experiment: Proliferation inhibiting action against mouse leukemia L1210 culture cells; type: cell-based
Description: (§1) For example, […] of L1210 cells were inoculated, on RPM 11640 medium (Rosewellberg Research Institute) containing 20% bovine serum and the compound of the present invention was supplemented in a concentration of 0.0005 to 0.25 μg/ml followed by culturing at 37° C. in a carbon dioxide gas incubator. A 50% proliferation inhibiting concentration was determined as compared to control. Further the aforesaid L1210 culture cells were suspended in 8×10^5 cells/ml in RPM 11640 medium containing 10% bovine serum. After culturing at 37° C. for 1 to 2 hours in a carbon dioxide gas incubator, the compound of the present invention was supplemented in various concentrations. Fifteen minutes after, ^14 C-uridine (0.05 μCi/ml) or ^14 C-thymidine (0.05 μCi/ml) was added to the system followed by culturing at 37° C. for 60 minutes. To the reaction mixture was added chilled 10% trichloroacetic acid to discontinue the reaction. At the same time, insoluble matters were precipitated, further washed twice with chilled 5% trichloroacetic acid and then dissolved in formic acid to provide for measurement of the radioactivity. A 50% intake inhibiting concentration was determined from a rate of intake of the radioactivity in the control group added with no compound.

[2] = system: DNA synthesis in mouse leukemia L1210 culture cell; experiment: Nucleic acid synthesis inhibiting action: DNA synthesis (14C-thymidine intake) in L1210 culture cells; type: cell-based; conditions: 1 h, 60 minutes, 10% bovine serum, 37° C., read-out: 50% Inhibiting Concentration (IC50), Inhibition of DNA Synthesis
Description: as §1

[3] = system: RNA synthesis in mouse leukemia L1210 culture cell; experiment: Nucleic acid synthesis inhibiting action: RNA synthesis (14C-uridine intake) in L1210 culture cells; type: cell-based; conditions: 1 h, 60 minutes, 10% bovine serum, 37° C., read-out: 50% Inhibiting Concentration (IC50), Inhibition of RNA Synthesis
Description: as §1

[4] = system: murine L1210 leukemia; experiment: In vivo antitumor activity against murine L1210 leukemia in CDF1 mice
Description: The therapeutic effect of obelmycins were studied on CDF1 mice bearing L1210 leukemia, From 24 hours after 1×10^5 L1210 cells/animal were intraperitoneally transplanted to CDF1 mice, Obelmycins were intraperitoneally given everyday for 10 days. The prolongation of the survival time was calculated relative to control animals receiving physiological saline as 100.
Inoculation: 1×10^5 cells/mouse (ip)
Treatment: day 1 to 10, daily (ip)

[5] = L1210 cells, RPM 11640 medium with 20% bovine serum, 37° C., read-out: 50% Inhibiting Concentration (IC50), Inhibition of Cell Proliferation
[6] = L1210, read-out: 50% Inhibiting Concentration (IC50), Inhibition of Cell Proliferation
[7] = dose 3.1 μg/kg/day ip, daily day 1 to 10, CDF1 mice n=6, survival time relative to saline control as 100

SMILES	IC50 [1, 5]	IC50 [2]	IC50 [3]	Antitumor effect T C (%) ([4]; dose 200 μg/kg/day ip, daily day 1 to 10, CDF1 mice n=6, survival time relative to saline control as 100)	IC50 [1, 6]	Antitumor effect T C (%) [4, 7]	Antitumor effect T C (%) ([4]; dose 12.5 μg/kg/day ip, daily day 1 to 10, CDF1 mice n=6, survival time relative to saline control as 100)	Antitumor effect T C (%) ([4]; ip, 0.1 mg/kg, 24 h)	Antitumor effect T C (%) ([4]; ip, 0.025 mg/kg, 24 h)
CCC1(O)CCc2c(O)c3c(c(O)c2C1OC1CC(N(C)C)C(O)C(C)O1)C(=O)c1c(O)ccc(O)c1C3=O (stereo not shown) [Obelmycin G]	0.2 µg/mL (≈ 0.368 µM)	1.5 µg/mL (≈ 2.76 µM)	1.1 µg/mL (≈ 2.02 µM)	145%	–	–	–	–	–
CCC1(O)CC(OC2CC(N(C)C)C(OC3CC(O)C(OC4CCC(O)C(C)O4)C(C)O3)C(C)O2)c2c(O)c3c(c(O)c2C1OC1CC(N(C)C)C(OC2CC(O)C(OC4CCC(O)C(C)O4)C(C)O2)C(C)O1)C(=O)c1c(O)ccc(O)c1C3=O (stereo not shown) [Obelmycin D]	–	1.2 µg/mL (≈ 0.996 µM)	0.175 µg/mL (≈ 0.145 µM)	–	0.004 µg/mL (≈ 0.00332 µM)	140%	–	–	–
CCC1(O)CC(OC2CC(N(C)C)C(OC3CCC(OC4CCC(O)C(C)O4)C(C)O3)C(C)O2)c2c(O)c3c(c(O)c2C1OC1CC(N(C)C)C(OC2CCC(OC4CCC(O)C(C)O4)C(C)O2)C(C)O1)C(=O)c1c(O)ccc(O)c1C3=O (stereo not shown) [Obelmycin B]	–	0.26 µg/mL (≈ 0.222 µM)	0.025 µg/mL (≈ 0.0213 µM)	–	0.0009 µg/mL (≈ 0.000767 µM)	150%	–	–	–
CCC1(O)CCc2c(O)c3c(c(O)c2C1OC1CC(N(C)C)C(OC2CCC(OC4CCC(O)C(C)O4)C(C)O2)C(C)O1)C(=O)c1c(O)ccc(O)c1C3=O (stereo not shown) [Obelmycin E]	–	1.3 µg/mL (≈ 1.68 µM)	0.78 µg/mL (≈ 1.01 µM)	–	0.062 µg/mL (≈ 0.0803 µM)	–	135%	–	–
CCC1(O)CC(OC2CC(N(C)C)C(O)C(C)O2)c2c(O)c3c(c(O)c2C1O)C(=O)c1c(O)ccc(O)c1C3=O (stereo not shown) [Obelmycin A]	0.001 µg/mL (≈ 0.00179 µM)	0.58 µg/mL (≈ 1.04 µM)	0.14 µg/mL (≈ 0.25 µM)	–	–	–	–	185%	–
CCC1(O)CCc2c(O)c3c(c(O)c2C1OC1CC(N(C)C)C(OC2CC(O)C(OC4CCC(O)C(C)O4)C(C)O2)C(C)O1)C(=O)c1c(O)ccc(O)c1C3=O (stereo not shown) [Obelmycin F]	0.092 µg/mL (≈ 0.117 µM)	1.43 µg/mL (≈ 1.82 µM)	0.6 µg/mL (≈ 0.762 µM)	–	–	–	–	–	130%
CCC1(O)CC(OC2CC(N(C)C)C(OC3CC(O)C(OC4CCC(O)C(C)O4)C(C)O3)C(C)O2)c2c(O)c3c(c(O)c2C1OC1CC(N(C)C)C(OC2CCC(OC4CCC(O)C(C)O4)C(C)O2)C(C)O1)C(=O)c1c(O)ccc(O)c1C3=O (stereo not shown) [Obelmycin C]	–	0.38 µg/mL (≈ 0.32 µM)	0.043 µg/mL (≈ 0.0362 µM)	–	0.001 µg/mL (≈ 0.000841 µM)	145%	–	–	–
